We go through four compounds from patent US20150196507A1, “CONTROL OF MILK PRODUCTION AND MAMMARY INVOLUTION” (Amelgo, LLC, priority 2009, published 2015).

Test [1] has as its system multiparous Holstein cows. Kind of test: Intramammary infusion at dry-off in Holstein cows (milk yield, milk composition, plasma lactose). The class given is in vivo, cow. The note with it: for milk yield decline: day one following initiation of treatments, 5 mg in 5 ml carrier per quarter, control down 7.5 kg; for drop in amount of milk versus cows not receiving any infusion: after the first of three daily infusions, FIG. 6. The procedure:
In a set of experiments, forty-five multiparous Holstein cows milked three times daily and producing at least 20 kg/day were randomly assigned to once a day milking and one of three intramammary treatments in each quarter for three days. A control group of fifteen cows received 5 ml of a carrier of 9:1 sterile water and oil via infusion. […] The third group of fifteen cows received a treatment of 5 ml the carrier containing 5 mg of the precursor for serotonin synthesis (5-HTP) via infusion.
The milk yield decline was greater for the second group (down 9.5 kg) and the third group (down 10.0 kg) than that of the first group (down 7.5 kg) on day one following the initiation of treatments (P<0.01).
The amount of milk dropped close to 10% for those cows receiving an infusion of 5-HTP versus cows not receiving any infusion.
Milk lactose, protein, and fat percentage were not affected by treatments, but the milk sodium to potassium ratio increased to 2.8 in the second group on day two as compared to 1.44 in the first group and 1.78 in the third group, (P<0.01).

Test [2] has as its system cultures of mammary tissues taken from a lactating mouse. Description: Trans-epithelial electrical resistance (TEER) of mouse mammary tissue cultures. The class given is cell-based. The arrangement: dose or concentration left out as unconfirmed. Conditions: fluoxetine, measured at 48 hours.
For test [3], the system named is primary human breast epithelial cells. Description: TEER of human mammary cultures. The class given is cell-based. The note with it: for TEER change (FIG. 3): combination read at 36 hours. The text has this:
FIG. 3 is a graphic illustration of a similar experiment performed on mammary gland cultures biopsied from primary human breast epithelial cells.

As to `N[C@@H](Cc1c[nH]c2ccc(O)cc12)C(=O)O` [5-HTP, 5-hydroxytryptophan], the milk yield decline in test [1] (P<0.01) turned out to be 10.0 kg. Also, the “drop in amount of milk versus cows not receiving any infusion” value in test [1] (day two) was about 10%. Besides, the “milk sodium to potassium ratio” value in test [1] (day two, first (control) group 1.44, P<0.01) is on record as 1.78.
Take `CCN[C@@H](C)Cc1cccc(C(F)(F)F)c1` [dexfenfluramine]: the “TEER change (FIG. 2)” value in test [2] was “decrease in TEER similar to that of the combination of phenelzine and fluoxetine”. In addition, in test [3] (FIG. 3), the “reduction in TEER” value turned out to be 50%.
As for `CNCCC(Oc1ccc(C(F)(F)F)cc1)c1ccccc1` (centres unmarked) [fluoxetine], the “plasma lactose increase compared to the other two groups” value in test [1] (day 1 post-infusion, P<0.001) is “increased two-fold”. The milk yield decline in test [1] (P<0.01) turned out to be 9.5 kg. Moreover, the “drop in amount of milk versus cows not receiving any infusion” value in test [1] (day two) is given as about 31%. Moreover, the “TEER change (FIG. 3)” value in test [3] is given as “did not change TEER”.
For `NNCCc1ccccc1` [phenelzine], the “TEER change (FIG. 2)” value in test [2] is “small but significant increase in TEER”. Further, in test [3], the “TEER change (FIG. 3)” value is “caused a decrease”.
